According to patent US6803501B2 (Monsanto Technology, LLC, priority 2000, dated 2004):
Where a chain is given by its changes, count along the chain named.

How the values were obtained:
[1] = biological target: T1, E. indica glypS EPSPS (Eleusine indica, naturally occurring glyphosate sensitive, wild type) (Eleusine indica, UniProt Q95AK0); assay: kinetic characterization of EPSP synthase (Table 4); format: biochemical
T1 construct: plant extract or E. coli SR481 extract
T1 sequence (Q95AK0 1-445): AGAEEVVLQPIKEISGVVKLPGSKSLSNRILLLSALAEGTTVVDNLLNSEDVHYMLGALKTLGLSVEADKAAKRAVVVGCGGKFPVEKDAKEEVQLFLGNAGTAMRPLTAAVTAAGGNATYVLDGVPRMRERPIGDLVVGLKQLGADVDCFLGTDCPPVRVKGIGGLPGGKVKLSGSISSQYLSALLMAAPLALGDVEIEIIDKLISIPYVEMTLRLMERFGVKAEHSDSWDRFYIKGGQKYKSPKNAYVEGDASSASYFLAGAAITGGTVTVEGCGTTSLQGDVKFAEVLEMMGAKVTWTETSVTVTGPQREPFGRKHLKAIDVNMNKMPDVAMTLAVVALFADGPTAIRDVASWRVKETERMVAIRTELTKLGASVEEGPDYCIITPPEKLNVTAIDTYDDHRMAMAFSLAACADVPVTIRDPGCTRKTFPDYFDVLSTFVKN
Description: (§1) Final sample volumes are approximately 0.5 ml.

[2] = biological target: T2, P. hybrida EPSPS variant glypR (Gly-Ala, Pro-Ser) (Petunia hybrida, UniProt P11043, G173A/P178S); assay: as above; format: biochemical
T2 sequence (P11043 73-516 G173A/P178S): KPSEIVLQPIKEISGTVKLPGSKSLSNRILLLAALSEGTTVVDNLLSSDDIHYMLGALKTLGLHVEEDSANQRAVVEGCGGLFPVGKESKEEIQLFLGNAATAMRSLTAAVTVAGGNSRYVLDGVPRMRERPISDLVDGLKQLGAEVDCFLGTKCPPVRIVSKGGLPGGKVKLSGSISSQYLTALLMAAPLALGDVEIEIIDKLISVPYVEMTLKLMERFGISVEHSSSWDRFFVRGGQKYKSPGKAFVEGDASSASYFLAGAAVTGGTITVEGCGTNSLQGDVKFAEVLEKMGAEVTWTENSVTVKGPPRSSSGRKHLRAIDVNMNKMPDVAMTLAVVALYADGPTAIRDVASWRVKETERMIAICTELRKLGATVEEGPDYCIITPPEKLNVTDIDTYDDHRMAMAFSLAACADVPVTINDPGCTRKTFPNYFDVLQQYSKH
Description: as §1

[3] = biological target: T3, P. hybrida EPSPS variant glypR (Pro-Ser) (Petunia hybrida, UniProt P11043, P178S); assay: as above; format: biochemical
T3 sequence (P11043 73-516 P178S): T2 sequence (P11043 73-516 G173A/P178S) with A101G
Description: as §1

[4] = biological target: T4, Z. mays EPSPS variant glypR (Thr-Ile, Pro-Ser) (Zea mays, UniProt A0A1D6NVZ6, P168S/T164I); assay: as above; format: biochemical; details: read-out: apparent Ki for glyphosate; with respect to PEP, saturating S3P
T4 sequence (A0A1D6NVZ6 63-506 T164I/P168S limits assumed): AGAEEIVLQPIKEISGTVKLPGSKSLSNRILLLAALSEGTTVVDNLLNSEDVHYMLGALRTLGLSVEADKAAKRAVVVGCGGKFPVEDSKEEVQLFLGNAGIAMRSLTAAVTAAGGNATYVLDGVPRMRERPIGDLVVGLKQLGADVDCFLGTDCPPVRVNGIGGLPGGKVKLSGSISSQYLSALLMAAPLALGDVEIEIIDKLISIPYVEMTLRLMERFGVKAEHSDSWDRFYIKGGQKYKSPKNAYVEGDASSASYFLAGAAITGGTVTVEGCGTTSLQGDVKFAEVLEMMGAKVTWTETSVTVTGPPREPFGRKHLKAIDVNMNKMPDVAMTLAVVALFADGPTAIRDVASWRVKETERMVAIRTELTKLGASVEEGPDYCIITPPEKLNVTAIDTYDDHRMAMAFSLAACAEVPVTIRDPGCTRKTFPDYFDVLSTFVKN
Description: as §1

[5] = biological target: T5, Z. mays glypS (wt) EPSPS (Zea mays, glyphosate sensitive, wild type) (Zea mays, UniProt A0A1D6NVZ6); assay: as above; format: biochemical
T5 sequence (A0A1D6NVZ6 63-506 limits assumed): T4 sequence (A0A1D6NVZ6 63-506 T164I/P168S limits assumed) with I102T, S106P
Description: as §1

[6] = system: EPSPS of the glyphosate sensitive E. indica biotype (wild type, plant crown extract); assay: radiometric EPSP synthase assay, glyphosate inhibition, plant extracts of sensitive biotype; format: biochemical, Eleusine indica; details: read-out: I50 (glyphosate); 1 mM shikimate-3-phosphate, 0.5 mM PEP, pH 7.0, 25° C.
Description: Preparation of extracts and radiometric EPSP synthase assays are performed using methods adapted from published procedures (Padgette et al., J. Biol. Chem. 266:22364-22369 (1991). Crown regions are dissected from whole plants, pulverized under liquid nitrogen with a mortar and pestle, then stored at −80° C. prior to extraction. Homogenates are prepared from 0.5 g tissue per sample in 25 ml extraction buffer (100 mM TrisCl, 10% glycerol, 1 mM EDTA, 1 mM benzamidine, 1 mM dithiothreitol, 1 mM 4-(2-aminoethyl)-benzenesulfonyl floride HCl, 0.1 mM leupeptin, pH 7.4) at 4° C. using a model PT3000 Polytron homogenizer (Brinkman Instuments Inc., Westbury, N.Y.). Debris is removed by 0.2 μm filtration, then the resulting supernatant is concentrated and desalted using an Ultrafree-15 centrifugal filtration unit (cat.#UFV2-BGC-10, Millipore Corp., Bedford, Mass.). Final sample volumes are approximately 0.5 ml. Protein concentrations are determined spectrophotometrically using the Bio-Rad protein assay reagent (cat.#500-0006, Bio-Rad Laboratories, Hercules, Calif.). EPSPS specific activities are determined by assaying 10 μl extract at 25° C. for 5-15 min. […] Reactions are quenched with the addition of 50 μl 9:1 ethanol: 0.1 M acetic acid. […]

O=C(O)CNCP(=O)(O)O [glyphosate, N-phosphonomethylglycine]
Ki [1]: 0.05 µM
Ki [2]: 8500 µM
Ki [3]: 3 µM
Ki [4]: 60 µM
Ki [5]: 0.2 µM
IC50 [6]: ~3 µM
